Here are results for 8 molecules from PubChem BioAssay (NCI).

Among the test systems are RXF 393 renal; OVCAR-3 ovarian; SF-268 CNS; SF-295 CNS; HOP-62 NSCLC; T-47D breast; MOLT-4 leukemia; COLO 205 colon; M14 melanoma; SW-620 colon.
Common to all, as to assay: DTP human tumour cell line panel, 48 h

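Briefly, cells in 96-well plates were exposed to five compound concentrations for 48 h, and endpoints were estimated by linear interpolation. The concentration for 50% growth inhibition is given as GI50. TGI denotes the concentration required for complete inhibition of growth.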

As for `CN1CCN(CCCOc2ccc3ncnc(Nc4ccc(Oc5cccc(F)c5)c(Cl)c4)c3c2)CC1`, the GI50 in the experiment on RXF 393 renal is 1.56 µM; with OVCAR-3 ovarian it was 1.61 µM; in the experiment with SF-268 CNS, 1.47 µM; in the experiment on SF-295 CNS, 1.8 µM; in the experiment with HOP-62 NSCLC, 1.75 µM; in the experiment with T-47D breast, 1.34 µM. In addition, the GI50 was 1.76 µM with MOLT-4 leukemia, 1.86 µM in the experiment on COLO 205 colon, 1.79 µM in the experiment with M14 melanoma and 1.68 µM with SW-620 colon. The TGI in the experiment with RXF 393 renal is 3.1 µM; in the experiment on OVCAR-3 ovarian, 3.74 µM; in the experiment on SF-268 CNS it was 3.14 µM; with SF-295 CNS, 3.25 µM; with HOP-62 NSCLC, 3.76 µM; with T-47D breast, 4.35 µM. Besides, the TGI in the experiment with MOLT-4 leukemia was 4.35 µM; in the experiment with COLO 205 colon, 3.64 µM; in the experiment with M14 melanoma, 3.62 µM; with SW-620 colon, 3.25 µM.
`CCOc1cccc(/C=N/NC(=O)Cc2ccc(Nc3ccnc(C(F)(F)F)c3)cc2)c1O`: the GI50 in the experiment with RXF 393 renal was 3.2 µM; with OVCAR-3 ovarian, 0.394 µM; in the experiment on SF-268 CNS it was 1.27 µM; in the experiment with SF-295 CNS it was 3.81 µM; in the experiment on HOP-62 NSCLC, 2.28 µM; in the experiment on T-47D breast, 2.43 µM. Moreover, the GI50 in the experiment with MOLT-4 leukemia was 0.499 µM; in the experiment with COLO 205 colon, 3.9 µM; in the experiment on M14 melanoma, 1.79 µM; in the experiment with SW-620 colon, 3.06 µM. The concentration for total growth inhibition (TGI) was 40 µM with RXF 393 renal; 30.4 µM in the experiment on OVCAR-3 ovarian; 32.4 µM in the experiment on SF-268 CNS; 43.2 µM in the experiment on SF-295 CNS; 30.8 µM in the experiment on HOP-62 NSCLC; 26 µM in the experiment on T-47D breast. Besides, the TGI was 4.42 µM in the experiment with MOLT-4 leukemia, > 100 µM with COLO 205 colon, 15.8 µM with M14 melanoma and 18 µM in the experiment on SW-620 colon.
In the case of `O=C(Nc1nc2ccc(F)cc2s1)c1cccnc1Nc1ccc(Cl)cc1Cl`, the GI50 with RXF 393 renal was 3.31 µM; in the experiment with OVCAR-3 ovarian, 2.18 µM; with SF-268 CNS it was 3.34 µM; in the experiment on SF-295 CNS, 1.93 µM; with HOP-62 NSCLC, 3.05 µM; in the experiment with T-47D breast it was 1.61 µM. Moreover, the GI50 with MOLT-4 leukemia was 2.35 µM; in the experiment on COLO 205 colon, 1.72 µM; in the experiment on M14 melanoma it was 3.18 µM; in the experiment on SW-620 colon, 3.04 µM. Further, the TGI is 11.7 µM in the experiment with RXF 393 renal; 7.1 µM in the experiment with OVCAR-3 ovarian; 16.3 µM in the experiment with SF-268 CNS; 8.02 µM in the experiment with SF-295 CNS; 12.8 µM in the experiment on HOP-62 NSCLC; 8.01 µM in the experiment with T-47D breast. Besides, the concentration for total growth inhibition (TGI) in the experiment with MOLT-4 leukemia amounted to 17.3 µM; in the experiment on COLO 205 colon it was 3.81 µM; with M14 melanoma, 14.6 µM; with SW-620 colon it was 15.1 µM.
For `O=C1Nc2ccc(Br)cc2C1=Nc1ccc(Cl)cc1`, the TGI in the experiment on RXF 393 renal is 40.1 µM; with OVCAR-3 ovarian, 40 µM; with SF-268 CNS, 55.8 µM; in the experiment with SF-295 CNS it was 89.2 µM; in the experiment with HOP-62 NSCLC it was 52.1 µM; in the experiment on T-47D breast, > 100 µM. The TGI was > 100 µM in the experiment on MOLT-4 leukemia, 4.71 µM in the experiment with COLO 205 colon, 72.2 µM with M14 melanoma and 32.5 µM with SW-620 colon.
In the case of `Cc1cc(C(=O)Nc2cc(Nc3ncccc3-c3ncnc4nc[nH]c34)ccc2F)cc(C(C)(C)C#N)c1`, the GI50 in the experiment with RXF 393 renal was 4.82 µM; in the experiment with OVCAR-3 ovarian it was 5.99 µM; in the experiment with SF-268 CNS, 7.85 µM; with SF-295 CNS it was 4.45 µM; with HOP-62 NSCLC, 0.461 µM; with T-47D breast, 2.59 µM. Moreover, the GI50 in the experiment with MOLT-4 leukemia was 3.45 µM; in the experiment on COLO 205 colon, 0.0526 µM; with M14 melanoma it was 0.0388 µM; in the experiment with SW-620 colon, 0.649 µM. Moreover, the TGI in the experiment on RXF 393 renal was 42 µM; in the experiment with OVCAR-3 ovarian, > 100 µM; in the experiment with SF-268 CNS it was > 100 µM; in the experiment with SF-295 CNS it was > 100 µM; with HOP-62 NSCLC, > 100 µM; in the experiment on T-47D breast it was > 91.7 µM. In addition, the TGI with MOLT-4 leukemia was > 100 µM; in the experiment with COLO 205 colon, > 100 µM; in the experiment with M14 melanoma, 1.12 µM; with SW-620 colon, > 100 µM.
On to `COc1ccc(-c2nn(-c3cccc(Cl)c3)cc2-c2cc(-c3cccs3)no2)cc1`, for which the GI50 in the experiment on RXF 393 renal was 3.49 µM; with OVCAR-3 ovarian it was 5.07 µM; in the experiment with SF-268 CNS it was 4.94 µM; in the experiment on SF-295 CNS, 2.7 µM; with HOP-62 NSCLC it was 13.9 µM; in the experiment on T-47D breast, 3.86 µM. The GI50 was 2.96 µM in the experiment on MOLT-4 leukemia, 3.21 µM with COLO 205 colon, 3.3 µM with M14 melanoma and 4.35 µM in the experiment on SW-620 colon. Moreover, the TGI is 20.1 µM in the experiment on RXF 393 renal; 25 µM in the experiment on OVCAR-3 ovarian; 47.1 µM in the experiment on SF-268 CNS; 13.2 µM in the experiment on SF-295 CNS; 28.1 µM in the experiment with HOP-62 NSCLC; 25.3 µM in the experiment on T-47D breast. Besides, the TGI turned out to be 19.5 µM with MOLT-4 leukemia, 7.24 µM in the experiment with COLO 205 colon, 17.1 µM with M14 melanoma and 22.6 µM in the experiment on SW-620 colon.
In the case of `N=C(N)SCC(=O)O`, the total growth inhibition concentration (TGI) with RXF 393 renal, with OVCAR-3 ovarian, in the experiment on SF-268 CNS, in the experiment on SF-295 CNS, in the experiment with HOP-62 NSCLC and in the experiment with T-47D breast was > 100 µM throughout. Further, the TGI in the experiment on MOLT-4 leukemia, in the experiment with COLO 205 colon, with M14 melanoma and in the experiment with SW-620 colon was > 100 µM throughout.
In the case of `CCOC(=O)C(=Cc1c(-c2ccccc2)[nH]c2ccccc12)C(=O)OCC`, the GI50 in the experiment with RXF 393 renal is 3.1 µM; with OVCAR-3 ovarian it was 4.21 µM; in the experiment with SF-268 CNS, 7.46 µM; in the experiment on SF-295 CNS, 7.27 µM; in the experiment on HOP-62 NSCLC, 4.27 µM; in the experiment on T-47D breast, 2.62 µM. Also, the GI50 in the experiment on MOLT-4 leukemia is 3.81 µM; in the experiment on COLO 205 colon, 4.81 µM; in the experiment with M14 melanoma, 4.16 µM; in the experiment with SW-620 colon, 5.57 µM. In addition, the TGI in the experiment with RXF 393 renal turned out to be 12.1 µM; with OVCAR-3 ovarian it was 22.6 µM; with SF-268 CNS, 28.5 µM; in the experiment on SF-295 CNS, 63.8 µM; in the experiment with HOP-62 NSCLC it was 14.1 µM; with T-47D breast, 8.43 µM. Moreover, the TGI is 18.8 µM in the experiment on MOLT-4 leukemia, 16.3 µM in the experiment with COLO 205 colon, 15.6 µM in the experiment with M14 melanoma and 22.1 µM in the experiment on SW-620 colon.
